Results on 4 compounds are retold here after ChEMBL document CHEMBL1126825, “4-Methoxy-2-methyltetrahydropyrans: chiral leukotriene biosynthesis inhibitors, related to ICI D2138, which display enantioselectivity” (J Med Chem, 1993).

The species named for one experiment is Homo sapiens. Nature of the experiment: In vitro inhibition of LTB4 biosynthesis in A-23187-stimulated human whole blood. It is filed as functional.
The species entered for another experiment is Mus musculus. Put plainly: In vitro inhibition of LTC4 biosynthesis in plasma protein-free cultures of zymosan-stimulated mouse macrophages. Format: functional.

Turning to `CO[C@@]1(c2cc(F)cc(OCc3ccc4c(ccc(=O)n4C)c3)c2)CCO[C@@H](C)C1`, the results for the IC50 in the experiment listed under Homo sapiens and in the experiment listed under Mus musculus were 1.76 µM and 0.06 µM, respectively. In the experiment listed under Mus musculus, `CO[C@]1(c2cc(F)cc(OCc3ccc4c(ccc(=O)n4C)c3)c2)CCO[C@@H](C)C1` showed an IC50 of 0.0004 µM. Regarding `CO[C@@]1(c2cc(F)cc(OCc3ccc4c(ccc(=O)n4C)c3)c2)CCO[C@H](C)C1`, the IC50 turned out to be 0.67 µM in the experiment filed under Homo sapiens and 0.009 µM in the experiment filed under Mus musculus. For `CO[C@]1(c2cc(F)cc(OCc3ccc4c(ccc(=O)n4C)c3)c2)CCO[C@H](C)C1`, the IC50 was 0.14 µM in the experiment filed under Homo sapiens and 0.008 µM in the experiment filed under Mus musculus.

The term IC50 denotes the concentration that gives 50% inhibition. A low value points to greater potency in that assay.
